The target in one assay is hGPR3 (Homo sapiens, UniProt P46089). Description: cAMP accumulation through hGPR3 stably expressed in HEK293 cells. The settings on record: tested up to 100 μM. The assay is classed as cell-based. For orientation: cAMP levels reflect the balance of adenylyl cyclase and phosphodiesterase activity.
Another assay concerns HEK parental cell line. Description: cAMP accumulation in HEK parental cell line. The note with it: up to 10 μM.
Assay [1] concerns GPR3. The settings on record: cited from earlier work.
The test system of assay [2] is GPR3. The note with it: β-arrestin PathHunter assay; cited from earlier work.

Chain of hGPR3 (P46089 whole entry): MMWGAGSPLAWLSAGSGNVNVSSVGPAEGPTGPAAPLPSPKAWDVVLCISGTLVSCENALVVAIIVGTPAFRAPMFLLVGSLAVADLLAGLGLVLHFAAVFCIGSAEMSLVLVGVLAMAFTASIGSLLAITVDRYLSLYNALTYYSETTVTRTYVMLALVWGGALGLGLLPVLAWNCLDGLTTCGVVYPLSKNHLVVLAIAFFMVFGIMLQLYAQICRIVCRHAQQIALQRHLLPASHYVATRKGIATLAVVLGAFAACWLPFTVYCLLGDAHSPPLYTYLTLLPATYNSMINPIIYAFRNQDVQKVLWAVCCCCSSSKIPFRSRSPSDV

On to `Fc1cccc2c1-c1ccccc1[I+]2` [Compound 34], for which the “GPR3 agonist activity in words” value at hGPR3 was “inactive”.

`FC1(F)Oc2cc3c(cc2O1)-c1ccccc1[I+]3` [Compound 38]: the “GPR3 agonist activity in words” value on hGPR3 is “inactive”. On to `[Cl-].c1ccc2c(c1)[I+]c1ccccc1-2` [Compound 1, diphenyleneiodonium (DPI) chloride], for which the “increase of cAMP” value is given as “Neither compound increased cAMP” in the assay with HEK parental cell line and “but not GPR6, GPR12, or in HEK293 cells alone” in the assay with HEK parental cell line (listed as DPI). Besides, the “reported EC50 for cAMP accumulation” value in the assay on GPR3 [1] (GPR3 activation) is reported as “low micromolar range”. Take `c1ccc2c(c1)Cc1ccccc1[I+]2` [Compound 23, 10H-Dibenz[b,e]iodinium]: on hGPR3, the “GPR3 agonist activity in words” value is “inactive”. Turning to `CCCCCCCCCCCCC/C=C/[C@@H](O)[C@@H](N)COP(=O)(O)O` [Compound S1P, sphingosine 1-phosphate], in the assay with GPR3 [2], the “activation of GPR3 mediated internalization” value was “does not activate”. For the same compound, the “activation of cAMP accumulation” value with GPR3 [1] (CHO or HEK cells, ref 4a, 19) is given as “does not activate”.

Values taken from PMC10631289 (Bioorganic & medicinal chemistry letters, 2023).
